Results reported in patent US20250195660A1, “INACTIVATING BACTERIA WITH ELECTRIC PULSES AND ANTIBIOTICS” (Purdue Research Foundation, priority 2018, published 2025).

Tests used:
[1] = system: Esherichia coli (gram negative bacterium number 25922); assay: Inactivation of E. coli by 300 ns electric pulses combined with antibiotic (CFU plating); format: cell-based, Escherichia coli
Description: Equipment. Used was a capacitor based Blumlein pulse generator with a spark gap switch to produce trapezoidal EPs of 300 ns duration at the peak with rise and fall times close to 50 ns. Multiple pulses were delivered at a frequency of 1 Hz.
The samples were treated in a standard electroporation cuvette (Dot Scientific) whose resistance must match the pulse generator's impedance to prevent pulse reflection. […] Used were 2 mm cuvettes to ensure consistency between tests, and the applied voltage was measured across the cuvette using a LeCroy PPE 20 kV high voltage probe with a 1000:1 attenuation feeding into a TeleDyne LeCroy Waverunner 6 Zi Oscilloscope capable of measuring signals up to 4 GHz. Assuming a purely parallel plate geometry with minimal fringing gives an electric field E=V/d, where V is the peak voltage of the applied pulse and d is the gap distance.
Sample Preparation. These experiments assessed Stapphylococcus aureus (gram positive bacterium number 25923) from ATCC and Esherichia coli (gram negative bacterium number 25922) inoculated in luria broth (LB Broth Lennox, powder microbial growth medium. SIGMA-ALDRICH) by taking 8 mL of broth in a 50 mL sterile conical tube and incubating in a shaker for 20 h at 37° C. The sample was then diluted with fresh Luria broth until attaining an optical density of 0.25 for 100 μL on a photospectrometer (Molecular Devices) for a wavelength of 562 nm as measured in a 96-well plate. The optical density, which varies with growth or tube volume, was determined experimentally and set between 1×10^8 and 1.5×10^8 colony forming units (CFUs)/mL for the samples to be pulsed. These samples were then plated at dilutions between 10-6 and 100 (no dilution) depending on the effectiveness of the pulse treatments.
Electric Pulse Treatment Protocol. […] Although no consensus exists on a universal scaling law for applied EP “dose,” we fixed the energy density
[formula] • where N is the number of pulses and τ is the pulse duration. Fixing U for E=40, 30, and 20 kV/cm gave N=250, 445, and 1000 pulses, respectively. Cultures were plated as described below.
Cuvettes were filled with 365 μL of sample (sufficient to just cover the electrodes) and then 250 μL of molecular biology grade mineral oil was placed on top.
Added were 0.2, 2, and 20 μg/mL of each drug to the initial bacterial dilutions prior to pulsing. Samples were immediately placed on ice to minimize cell division and reduce variability. These aliquots were also used to plate individual unpulsed controls for each drug concentration.
Plating. Plating was done on standard disposable tissue culture Petri dishes from VWR (15 cm diameter, 10 mm height) and covered with 10 mL of agar in luria broth (Agar, microbiology tested powder, SIGMA-ALDRICH), which was prepared by adding 20 g of LB lennox (SIGMA-ALDRICH) and 15 g/L of agar to water and then autoclaved.
Plated were samples at dilutions of 10^−6 and 10^−3 for low and high electric field treatments, respectively, and at 10^−6 and 10^−5 for controls All samples containing 100 μL of pulsed or diluted cultures were plated on LB agar plates and counted after overnight incubation at 37° C.
Pulsing with drugs: bacterial samples of both gram-positive S. aureus and gram-negative E. coli strains were pulsed in a solution with 0.2, 2, and 20 μg/mL of tobramycin and compared to an un-pulsed drug-exposed control. Pulsing and plating were performed to ensure that the drug exposure time of the bacteria was approximately fifteen minutes.

[2] = system: methicillin resistant Staphylococcus aureus (USA300-0114 strain); assay: Inactivation of MRSA by 300 ns electric pulses and/or antibiotics (CFU plating); format: cell-based; settings: 20 μg/mL + 30 kV/cm EPs
Text: (§1) Except for rifampicin, the five other antibiotics in these examples primarily target gram-positive bacteria and are largely ineffective or not used against gram-negative bacteria in a clinical setting.
(§2) A Blumlein pulsed generator consisting of two lines comprised of twelve 2000 pF capacitors connected by inductors produced 300 ns EPs with rise-times of 30 ns and fall-times of 35 ns at a repetition frequency of 1 Hz (12). The EPs were applied to a standard 2 mm gap electroporation cuvette (Dot Scientific R) filled with a solution containing the microorganisms. Used was a Luria broth of 0.5% salinity (5 grams of NaCl/Liter) for the solution to electrically match the resistance of the sample with the impedance of the pulse generator (11Ω) to prevent signal reflection. The voltage measurements were taken using a LeCroy PPE 20 kV high voltage probe with a 1000:1 attenuation recorded by a TeleDyne LeCroy® Waverunner 6 Zi Oscilloscope with a bandwidth of 4 GHZ.
The gram-negative strains included a carbapenem-resistant Escherichia coli (ATCC® BA-2452TM, New Delhi metallo-beta-lactamase NDM-1 positive.), Klebsiella pneumoniae (ATCC® BAA-2146TM NDM-I positive), and a gentamicin, streptomycin and sulfonamide resistant Pseudomonas aeruginosa (BEI Resources NR-31040). Assessed was the gram-positive strain of methicillin resistant Staphylococcus aureus (USA300-0114 strain), which is also resistant to erythromycin and tetracycline. Samples were cultured in Luria broth (LB Broth Lennox, powder microbial growth medium, SIGMA-ALDRICH®) by taking 25 mL of broth in a 50 mL sterile conical tube and incubating in a shaker for 16 h at 37° C. Samples were diluted 50% by adding 25 mL media to the incubated sample as we plated controls for each experiment and condition. […]
Removed was 20 μL from each cuvette and added to 180 μL of PBS in a 96-well dish in triplicate. […] These plates were then cultured overnight in an incubator at 37° C., and counted the next day.

[3] = system: gentamicin, streptomycin and sulfonamide resistant Pseudomonas aeruginosa (BEI Resources NR-31040); assay: Inactivation of P. aeruginosa by 300 ns electric pulses and/or antibiotics (CFU plating); format: cell-based; settings: 20 kV/cm EPs + 20 μg/mL
Text: as §1, §2
The gram-negative strains included a carbapenem-resistant Escherichia coli (ATCC® BA-2452TM, New Delhi metallo-beta-lactamase NDM-1 positive.), Klebsiella pneumoniae (ATCC® BAA-2146TM NDM-I positive), and a gentamicin, streptomycin and sulfonamide resistant Pseudomonas aeruginosa (BEI Resources NR-31040). Assessed was the gram-positive strain of methicillin resistant Staphylococcus aureus (USA300-0114 strain), which is also resistant to erythromycin and tetracycline. Samples were cultured in Luria broth (LB Broth Lennox, powder microbial growth medium, SIGMA-ALDRICH®) by taking 25 mL of broth in a 50 mL sterile conical tube and incubating in a shaker for 16 h at 37° C. Samples were diluted 50% by adding 25 mL media to the incubated sample as we plated controls for each experiment and condition.
Samples were treated in 2 mm gap cuvettes containing 365 μL of sample between the electrodes, with bio-grade mineral oil added on top of the electrode plates to prevent arcing.
To establish a common baseline for comparing different NSEP parameters, we fixed the energy density U delivered to the cuvettes according to Formula (1) (above). For 300 ns EPs, 500 EPs at 20 kV/cm and 222 EPs at 30 kV/cm delivered the same energy to the sample.
Tissue culture Petri dishes from VWR R (15 cm diameter, 10 mm height) were utilized for plating. Each plate was covered with 15 mL of Luria broth (Agar, microbiology tested powder, SIGMA-ALDRICH®), which was prepared by adding 20 g of LB Lennox (SIGMA-ALDRICH) and 15 g/L of agar to water prior to being autoclaved. The salinity of the agar was the same as the LB (0.5% NaCl) to minimize additional environmental stressors on the bacteria.
Removed was 20 μL from each cuvette and added to 180 μL of PBS in a 96-well dish in triplicate. Each well was then diluted by a ratio of 10:1 five additional times by taking 20 μL of the diluted sample into subsequent wells using multi-channel pipettes (using fresh tips for each dilution). Plated were the six dilutions of each sample two times each by adding 4 μL from each well onto the Petri dish using a multi-channel pipette, which allowed the plating of all three replicates on the same plate to achieve n=6. These plates were then cultured overnight in an incubator at 37° C., and counted the next day.

[4] = system: Stapphylococcus aureus (gram positive bacterium number 25923); assay: Inactivation of S. aureus by 300 ns electric pulses combined with antibiotic (CFU plating); format: cell-based, Staphylococcus aureus; settings: 30 kV/cm treatment + 20 μg/ml dose, in 10 min

CO[C@H]1/C=C/O[C@@]2(C)Oc3c(C)c(O)c4c(O)c(c(/C=N/N5CCN(C)CC5)c(O)c4c3C2=O)NC(=O)/C(C)=C\C=C\[C@H](C)[C@H](O)[C@@H](C)[C@@H](O)[C@@H](C)[C@H](OC(C)=O)[C@@H]1C [rifampicin]
log reduction of E. coli ([1]; 20 μg/mL + 445 pulses of 30 kV/cm, consistent with complete sterilization): > 9 log | synergy (additional kill off) compared to just the drug, E. coli ([1]; 20 μg/mL, EPs vs no EPs): 4 log | additional log-reduction of E. coli compared to pulsing alone ([1]; EPs + 2 and 20 μg/mL): 1.5 log | synergy (synergistic inactivation), MRSA [2]: approximately 1.5 log | synergy (FIG. 11B legend) [3]: approximately 2 log | additional log-reduction of S. aureus [4]: 1.5 log
